Laboratory results published in US5527811A, “Isoquinolinyl compounds which are useful in treating cerebral vascular disorders” (Takeda Chemical Industries, Ltd., priority 1993, dated 1996).
Counter-ions that a name gives are not always drawn. Like-named read-outs stand apart in the source and are kept apart here.

Legend:
[1] = tested on: transient cerebral ischemia in mongolian gerbils; assay: Protective effect of cerebralischemia: survival ratio after bilateral common carotid occlusion and reperfusion in gerbils; assay type: in vivo, mongolian gerbil; settings: Meriones unguiculatus, ip, 30 min before occlusion and 90 min after reperfusion, estimated 8 hr after reperfusion, control 0; for responders at 5 mg/kg: read-out: Survival ratio
Experimental: Test Example 1 Protective effect of cerebralischemia
Male mongolian gerbils (Seiwa/8-10 wks) (n=8-10) were used. Bilateral common carotid arteries were occluded after the incision of the center of the neck under ether anesthesia. Global cerebral ischemia was induced by the occlusion of bilateral common carotid arteries (15 minutes), and after that these arteries were reperfused. Test sample was administered intraperiatonelly 30 minutes before occlusion and 90 minutes after reperfusion. In the control group, vehicle (distilled water, saline or 5% gum arabic) was administered in the same fashion. Survival ratio was estimated at 8 hr after reperfusion (Table 2).

[2] = tested on: brain edema in male wistar rats; assay: Anti-brain edema effect (middle cerebral arterial occlusion and reperfusion model); assay type: in vivo, rat (wistar); settings: 10 mg/kg(ip) × 7, rat, 3rd day after reperfusion, * p < 0.05; for H2O (water content of brain): control 81.27 (Example 1), 80.94 (Example 15(HCl)); for Na (sodium content of brain): control 405 (Example 1), 371 (Example 15(HCl)); for K (potassium content of brain): control 430 (Example 1), 440 (Example 15(HCl))
Text: Test Example 2 Anti-brain edema effect (middle cerebral arterial occlusion and reperfusion model)
Male wistar rats (Jcl:9wks) were anesthetized with inhalation of halothane (2-bromo-2-chloro-1,1,1-trifluoroethane). After the incision of neck, bilateral common carotid arteries were […] an embolized needle (diameter 0.3 mm, length 26 mm nylon thread) was inserted into the left internal carotid artery through external carotid artery and, simultaneously, the bilateral common carotid arteries were occluded by the Sugita's aneurysm clips. The embolized needle and the clips were removed out 30 minutes after occlusion. Test sample was administered immediately and 5 hr after reperfusion on the operated day, twice a day on the 1st and 2nd day, and 1 hr before removing the brain on the 3rd day (total 7 times), intraperiatonelly. In the control group, vehicle (distilled water, saline or 5% gum arabic) was administered in the same fasion. Brain edema on the 3rd day after reperfusion was estimated from the content of water, potassium and sodium in cerebral cortex and striatum. Water content was calculated from the ratio of dried brain weight and wet brain weight [(1-dried weight/wet weight)×100%]. The contents of pottasium and sodium were measured using the solution extracted from dried brain tissue with 14% nitric acid by the method of the framephotometer (Table 3).

[3] = tested on: cytosolic free Ca^2+ in hippocampal neurons; assay: Effect on cytosolic free Ca^2+ concentration in neurons (L-glutamic acid-induced [Ca^2+]i increase, fura-2); assay type: cell-based; settings: Rattus norvegicus, Hippocampal neuron, L-Glu.-induced [Ca^2+]i increase
Experimental: Effect on cytosolic free Ca^2+ concentration in neurons
Neurons were harvested from hippocampi of 18-day-old rat embryos and cultured based on the method of Hatanaka and Tsukui (Developmental Brain Research, 30, 47-56, 1986). Hippocampal neurons suspended in Dulbecco's modified Eagle's medium were seeded on cover glass slides (10×20 mm, Matunami No. 1, Osaka, Japan) coated with poly-L-lysin at a density of 2.5×10^5 cells/slide and cultured for 7 days in humidified CO2 incubator (95% air/5% CO2) at 37° C. The neurons were washed 3 times with HEPES [N-(2-hydroxyethyl)piperazine-N'-2-ethanesulfonic acid]-buffered physiological salt solution (PSS) (140 mM NaCl, 5 mM KCl, 1 mMMgSO4, 1 mM Na2 HPO4, 1 mM CaCl2, 25 mM glucose, 25 mM HEPES, pH7.4), and then loaded with fura-2 acetoxymethyl ester (4 μM) in HEPES-buffered PSS for 60 min at 37° C. The cover glass slide coated with neurons, which were loaded with fura-2, was inserted into a cuvette that contained 2.5 ml HEPES-buffered PSS supplemented with 0.05% bovine serum albumin. Ca2+ -fura-2 fluorescence was measured with Hitachi F-2000 spectrofluorimeter by 340 nm and 380 nm for excitation and 505 nm for emission. Cytosolic free Ca^2+ concentration ([Ca^2+ ]i) values were calculated according to the method of Grynkiewicz et. al, (Journal of Biological Chemistry, 260, 3440-3450, 1985). Neurons were treated with example-compounds 5 min before the addition of L-glutamic acid (L-Glu.).
L-Glu. leads to two phases-increase of [Ca^2+ ]i in neurons. The first increase of [Ca^2+ ]i is caused by the release from cellular Ca^2+ stores and the influx of extracellular Ca^2+. The second one is caused by the influx of extracellular Ca^2+. The effect of the drug on these two phases-increase of [Ca^2+ ]i was examined and the 50% inhibitory dose (IC50) was calculated.

[4] = target: T1, substance P receptor from human lymphoblast cells (IM-9) (Homo sapiens, UniProt P25103); assay: Radioligand receptor binding inhibitory assay using receptor from human lymphoblast cells (IM-9), 125I-BHSP; settings: 25° C., 30 minutes, pH 7.4
T1 construct: The receptor was prepared from human lymphoblast cells (IM-9); endogenous in cells; host or cells: IM-9 human lymphoblast cells (washed membrane preparation)
Experimental: Radioligand receptor binding inhibitory assay using receptor from human lymphoblast cells (IM-9)
The method of "A. Margaret et al. Molecular Pharmacology 42, 458 (1992)" was modified and used. The receptor was prepared from human lymphoblast cells (IM-9). IM-9 cells were grown in 175 cm^2 tissue culture flasks (100 ml z 10) at a density approximately 2×10^5 /ml of RPMI 1640 with L-glutamine, 10% (V/V) heat inactivated fetal calf serum, penicillin (100 u/ml), and streptomycin (100 μg/ml) at 37° C. in 5%CO2 /95% air for 3 days. IM-9 cells were obtained by centrifugation at 500 Xg for 5 minutes at 5° C. The pellet obtained was washed once with phosphate buffer (Flow Laboratories, CAT No. 28-103-05), homogenized using Polytron homogenizer (Kinematika, Germany) in 30 ml of 50 mM Tris-HCl buffer containing 120 mM NaCl, 5 mM KCl, 2 μg/ml phenylmethyl sufonyl fluoride, and 1 mM ethylenediamine tetra-acetic acid and then centrifuged at 40,000 Xg for 20 minutes. The residue was washed twice with 30 ml of buffer described above, and preserved frozen (-80° C.).
The above specimen was suspended in a reaction buffer (50 mM Tris-HCl buffer (pH 7.4), 0.02% bovine serum albumin, 1 mM phenylmethylsufonyl fluoride, 2 μg/ml chymostatin, 40 μg/ml bacitracin, 3 mM manganese chloride) at a protein concentration of 1.5 mg/ml and a 100 μl portion of the suspension was used in the reaction. After addition of the sample and 125I-BHSP (0.46 KBq), the reaction was conducted in 0.2 ml of reaction buffer at 25° C. for 30 minutes. The amount of nonspecific binding was determined by adding substance P at a final concentration of […]. After the reaction, using a cell harvester (290PHD, Cambridge Technology, Inc., England), rapid filtration was carried out through a glass filter (GF/B, Whatman, U.S.A.) to stop the reaction. After washing three times with 250 μl of 50 mM Tris-HCl buffer (pH 7.4) containing 0.02% bovine serum albumin, the radioactivity remaining on the filter was measured with a gamma counter. Before use, the filter was immersed in 0.1% polyethyleneimine for 24 hours and air-dried. […]

T1 sequence (P25103 whole entry): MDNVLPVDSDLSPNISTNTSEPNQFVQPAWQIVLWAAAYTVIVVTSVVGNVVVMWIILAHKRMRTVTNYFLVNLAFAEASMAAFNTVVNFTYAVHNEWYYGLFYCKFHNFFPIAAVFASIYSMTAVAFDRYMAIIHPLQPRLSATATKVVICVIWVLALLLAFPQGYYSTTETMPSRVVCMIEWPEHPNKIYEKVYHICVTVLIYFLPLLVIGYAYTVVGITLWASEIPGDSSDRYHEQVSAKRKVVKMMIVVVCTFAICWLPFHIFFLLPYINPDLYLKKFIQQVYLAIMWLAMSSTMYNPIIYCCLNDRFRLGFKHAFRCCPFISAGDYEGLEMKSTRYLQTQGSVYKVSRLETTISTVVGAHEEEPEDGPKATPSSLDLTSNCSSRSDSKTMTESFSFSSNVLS

SMILES	IC50 [4] [nM]	responders at 5 mg/kg [1] [%]	H2O (water content of brain) [2] [%]	Na (sodium content of brain) [2] [mEq/kg]	K (potassium content of brain) [2] [mEq/kg]	other results
CC(C)Oc1cccc(NC(=O)NCc2c(-c3ccccc3)c3cc(Cl)ccc3c(=O)n2C)c1 [Example 1, N-[(6-Chloro-1,2-dihydro-2-methyl-1-oxo-4-phenylisoquinolin-3-yl)methyl]-N'-(3isopropoxyphenyl)urea]	–	88	80.12 ± 0.32	322 ± 24	471 ± 13	IC50 ([3]; with EGTA, 1st phase (release from cellular Ca^2+ stores), read-out: IC50 with EGTA, 1st Phase): 69 nM; IC50 ([3]; without EGTA, 1st phase, read-out: IC50 without EGTA, 1st Phase): 3000 nM; IC50 ([3]; without EGTA, 2nd phase, read-out: IC50 without EGTA, 2nd Phase): > 10000 nM
CN(C)Cc1cccc(NC(=O)NCc2c(-c3ccccc3)c3cc(Cl)ccc3c(=O)n2C)c1 [15 (HCl), N-[(6-Chloro-1,2-dihydro-2-methyl-1-oxo-4-phenylisoquinolin-3-yl)methyl]-N'-(3-N,N-dimethylaminomethylphenyl)urea hydrochloride]	–	88	80.24 ± 0.23	325 ± 17	466 ± 9	responders at 0.3 mg/kg ([1]; 0.3 mg/kg): 80%
Cc1cc2c(-c3ccccc3)c(CN(C)C(=O)c3cc(C(F)(F)F)cc(C(F)(F)F)c3)n(C)c(=O)c2cc1C [Example 36, 3,5-Bis(trifluoromethyl)-N-[(1,2-dihydro-2,6,7-trimethyl-1-oxo-4-phenylisoquinolin-3-yl)methyl]-N-methylbenzamide]	47	–	–	–	–	–

Second part, led by results:

IC50 [4] [nM]	SMILES	responders at 5 mg/kg [1] [%]	H2O (water content of brain) [2] [%]	Na (sodium content of brain) [2] [mEq/kg]	K (potassium content of brain) [2] [mEq/kg]	other results
1	CN(Cc1c(-c2ccccc2)c2ccccc2c(=O)n1C)C(=O)c1cc(C(F)(F)F)cc(C(F)(F)F)c1 [Example 37, 3,5-Bis(trifluoromethyl)-N-[(1,2-dihydro-2-methyl-1-oxo-4-phenylisoquinolin-3-yl)methyl]-N-methyl benzamide]	–	–	–	–	–
72	CN(Cc1c(-c2ccccc2)c2cc(Cl)ccc2c(=O)n1C)C(=O)c1cc(C(F)(F)F)cc(C(F)(F)F)c1 [Example 38, 3,5-Bis(trifluoromethyl)-N-[(6-chloro-1,2-dihydro-2-methyl-1-oxo-4-phenylisoquinolin-3-yl)methyl]-N-methylbenzamide]	–	–	–	–	–
